Reference: PMC5430874 (Scientific Reports, 2017)
Changes are numbered by the printed parent chain.

Legend:
Assay type in all cases: cell-based
[1] = biological target: T1, GPR139 F109A^3×33 (Homo sapiens, UniProt Q6DWJ6, F109A); assay: Fluo-4 Ca2+-assay, GPR139 mutant F109A; design: key to Emax ± SEM: NE: no effect (loss of activity); conditions: for EC50: F109A mutant; for Change of in vitro potency: F109A mutant versus WT, fold decreased
T1 construct: mGluR5 signal peptide (N); expressed in transfected cells; host or cells: HEK293
T1 sequence (Q6DWJ6 2-353 F109A limits assumed): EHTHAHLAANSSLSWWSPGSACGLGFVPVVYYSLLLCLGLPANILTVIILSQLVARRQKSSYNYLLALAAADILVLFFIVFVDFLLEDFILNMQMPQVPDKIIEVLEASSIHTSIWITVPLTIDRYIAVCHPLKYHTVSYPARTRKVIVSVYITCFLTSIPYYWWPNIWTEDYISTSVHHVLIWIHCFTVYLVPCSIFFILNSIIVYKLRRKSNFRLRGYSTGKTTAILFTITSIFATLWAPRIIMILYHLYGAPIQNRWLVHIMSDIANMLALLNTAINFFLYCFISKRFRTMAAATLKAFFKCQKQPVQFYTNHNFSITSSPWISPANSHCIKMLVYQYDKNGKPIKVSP
Description: (§1) To study the influence of specific amino acids in the predicted binding pocket on receptor function, the desired mutations were introduced into an N-terminally c-myc-tagged wild type human GPR139 (NM_001002911.3) in the pEGFP-N1 vector (BD Biosciences)[32], [33]. As previously described, these plasmids carry the signal peptide of mGluR5 to promote cell surface expression followed by a c-myc epitope to enable detection of total and surface expression by ELISA, followed by an engineered MluI and NotI site for easy insertion of the receptor of interest. Furthermore, the start-codon in the GPR139 sequence was deleted to ensure c-myc-tagging. Mutagenesis was designed in Serial Cloner 2.6 (© Franck Perez [SerialBasics]) and carried out by GenScript (USA). All mutated residues are illustrated in Supplementary Fig. 1b. An untagged GPR139(WT) in pEGFP-N1 was also generated to ensure that the c-myc-tag had no influence on GPR139(WT) function.
(§2) All GPR139 mutants were transfected into HEK293 cells. The HEK293 cells were grown in Dulbecco’s modified Eagle’s medium (DMEM) (Gibco, 41965) supplemented with 10% dialyzed fetal bovine serum (Gibco, 26400, United States origin), 100 units/mL penicillin and 100 μg/mL streptomycin (Gibco, 15140). HEK293 cells were reverse transfected using Lipofectamine2000 (Invitrogen). More specifically two mixtures were made: 1) 10 ng DNA/well + 25 μL Opti-MEM/well and 2) […] Lipofectamine2000/well + 25 μL Opti-MEM/well. The two mixtures were mixed and 50 μL/well was added directly in black 96-well plates with flat clear bottoms for the Fluo-4 Ca^2+-assay (Corning, Falcon, 353219) or in white Opaque 96-well Microplate (PerkinElmer Life, 6005680) for ELISA. 100 μL containing 20,000 cells were added to each well and incubated 48 hours before assays. All plates were coated with poly-D-lysine.
Compound 1a (1a) was kindly provided by H. Lundbeck A/S, Denmark. […] Both compounds were dissolved to 20 mM in DMSO (Sigma, D2650) and subsequently diluted in a HEPES buffer (HBSS (Gibco, 14025) supplemented with 20 mM HEPES + 1 mM MgCl2 + 1 mM CaCl2, pH = 7.4) to a final concentration of 0.5% DMSO in the Fluo-4 Ca^2+-assay. The DMSO level was kept constant for all concentrations of both compounds. DMSO was confirmed not to have any activity by itself at this concentration. L-Trp (T0254) and L -Phe (P2126) were obtained from Sigma-Aldrich and dissolved in buffer.
The Ca^2+ measurements were preformed using the Fluo-4 NW Calcium Assay Kit (Invitrogen, Molecular Probes, F36206) as previously described. Briefly, the Fluo-4 dye loading solution was prepared according to the manufacturer’s instructions by dissolving it in HEPES-buffer supplemented with 2.5 mM probenecid. 50 μL dye loading solution was added to each well. Cells were incubated with the Fluo-4 dye for 60 min at 37 °C, then washed with 100 μL HEPES-buffer. 100 μL HEPES-buffer supplemented with 2.5 mM probenecid was then added to each well and incubated in 10 minutes at 37 °C before measurement. […] Intracellular calcium changes were recorded as indicated on either a NOVOstar (BMG Labtech) at 37 °C with an excitation filter of 485 nm and an emission filters 520 nm or a FlexStation 3 Benchtop Multi-Mode Microplate Reader (Molecular Devices) at 37 °C with an excitation wavelength of 485 nm and emission of 525 nm.
All pharmacological data have been analyzed by using Prism 6.0 (GraphPad Software Inc., San Diego). Fitting of concentration response curves was performed by non-linear regression log(agonist) vs. response (four parameters). Pooled data are shown with standard error of the mean (S.E.M.) and data showing one representative are shown with standard deviation (S.D.). Changes in potency (pEC50) and span of myc-GPR139(WT) in comparison to untagged GPR139(WT) was statistically analyzed with a paired t-test and significance was accepted at p < 0.05. The ELISA data were normalized to surface expression of myc-GPR139(WT) (100%). […]

[2] = biological target: T2, GPR139 H187A^5×43 (Homo sapiens, UniProt Q6DWJ6, H187A); assay: Fluo-4 Ca2+-assay, GPR139 mutant H187A; conditions: for EC50: H187A mutant (surface expression 36% of WT)
T2 construct: mGluR5 signal peptide (N); expressed in transfected cells; host or cells: HEK293
T2 sequence (Q6DWJ6 2-353 H187A limits assumed): T1 sequence (Q6DWJ6 2-353 F109A limits assumed) with A108F, H186A
Description: as §1, §2
Compound 1a (1a) was kindly provided by H. Lundbeck A/S, Denmark. […]
(§3) The Ca^2+ measurements were preformed using the Fluo-4 NW Calcium Assay Kit (Invitrogen, Molecular Probes, F36206) as previously described. […] Intracellular calcium changes were recorded as indicated on either a NOVOstar (BMG Labtech) at 37 °C with an excitation filter of 485 nm and an emission filters 520 nm or a FlexStation 3 Benchtop Multi-Mode Microplate Reader (Molecular Devices) at 37 °C with an excitation wavelength of 485 nm and emission of 525 nm.
(§4) All pharmacological data have been analyzed by using Prism 6.0 (GraphPad Software Inc., San Diego). […] Changes in potency (pEC50) and span of myc-GPR139(WT) in comparison to untagged GPR139(WT) was statistically analyzed with a paired t-test and significance was accepted at p < 0.05. […]

[3] = biological target: T3, GPR139 H251A6x58 (Homo sapiens, UniProt Q6DWJ6, H251A); assay: Fluo-4 Ca2+-assay, GPR139 mutant H251A
T3 construct: mGluR5 signal peptide (N); expressed in transfected cells; host or cells: HEK293
T3 sequence (Q6DWJ6 2-353 H251A limits assumed): T1 sequence (Q6DWJ6 2-353 F109A limits assumed) with A108F, H250A
Description: as §1, with “Mutagenesis was designed in Serial Cloner 2.6 (© Franck Perez [SerialBasics]) and carried out by GenScript (USA). All mutated residues are illustrated in Supplementary Fig. 1b. An untagged GPR139(WT) in pEGFP-N1 was also generated to ensure that the c-myc-tag had no influence on GPR139(WT) function.” left out
as §3, §4

Row | SMILES | EC50 [1] [µM] | Emax at 30000 µM ([1]; F109A, at 30 mM, normalized to buffer (0%) and 30 mM Phe (100%) on WT) [%] | Emax at 100 µM [1] [%] | Change of in vitro potency [1] | Emax [2] [%] | EC50 [2] [µM] | Emax at 10000 µM ([1]; F109A, at 10 mM, normalized to buffer (0%) and 10 mM Trp (100%) on WT) [%] | Emax ± SEM ([1]; F109A, at 8 μM, normalized to buffer (0%) and 8 μM 1a (100%) on WT) | Emax at 8 µM ([2]; H187A, at 8 μM, normalized to buffer (0%) and 8 μM 1a (100%) on WT) [%] | EC50 ([3]; H251A mutant) [µM] | Emax ([3]; H251A, normalized to buffer (0%) and 8 µM 1a (100%)) [%]
1 | N[C@@H](Cc1ccccc1)C(=O)O [L-Phe, phenylalanine] | > 31600 | 60 ± 6 |  |  |  |  |  |  |  |  | 
2 | C[C@@H](NC(=O)CNC(=O)c1cccc(Cl)c1)c1ccccc1 (racemic) [Compound 7c] | > 100 |  | 60 ± 3 | >2000 fold decreased | 60 ± 9 | 6.61 |  |  |  |  | 
3 | N[C@@H](Cc1c[nH]c2ccccc12)C(=O)O [L-Trp, tryptophan] | > 10000 |  |  |  |  |  | 60 ± 10 |  |  |  | 
4 | COc1cc(OC)cc(C(=O)NNC(=O)Nc2cccc3ccccc23)c1 [Compound 1a] | > 7.94 |  |  | Loss of function |  | > 7.94 |  | NE* | 35 ± 5 | 0.813 | 84 ± 11
